The values that follow come from ChEMBL document CHEMBL1155773, “Effects of imipenem-cilastatin, ertapenem, piperacillin-tazobactam, and ceftriaxone treatments on persistence of intestinal colonization by extended-spectrum-beta-lactamase-producing Klebsiella pneumoniae strains in mice” (2007).

≈ marks a conversion by molar mass, not a printed value. Calls of active or inactive are those of the source. The calls are words filed in the database; no cut-off is given here.

Assay [1] has as its system Klebsiella pneumoniae. Description: Antibacterial activity against extended-spectrum-beta-lactamase-producing Klebsiella pneumoniae P10045 by broth dilution method. Type of assay: functional. A general note: Dilution methods test growth across graded concentrations, often in twofold steps.
Assay [2] deals with Klebsiella pneumoniae. Briefly: Effect on extended-spectrum-beta-lactamase-producing Klebsiella pneumoniae P62 infected in sc dosed CF1 mouse with high-density bacterial colonization administered daily for 9 days assessed as promotion of persistent bacterial overgrowth by measuring stool bacterial count. The assay is classed as functional, organism-based.
Assay [3] has as its system Klebsiella pneumoniae. Description: Antibacterial activity against extended-spectrum-beta-lactamase-producing Klebsiella pneumoniae P62 by broth dilution method. Type of assay: functional.
The subject of assay [4] is Klebsiella pneumoniae. Briefly: Effect on extended-spectrum-beta-lactamase-producing Klebsiella pneumoniae P10045 infected in sc dosed CF1 mouse with high-density bacterial colonization administered daily for 9 days assessed as promotion of persistent bacterial overgrowth by measuring stool bacterial count. Type of assay: functional, organism-based.
Assay [5] has as its system Klebsiella pneumoniae. Description: Antibacterial activity against extended-spectrum-beta-lactamase-producing Klebsiella pneumoniae isolate. The assay is classed as functional.
Assay [6] has as its system Klebsiella pneumoniae. Briefly: Antibacterial activity against extended-spectrum-beta-lactamase-producing Klebsiella pneumoniae P62 infected in sc dosed CF1 mouse with high-density bacterial colonization administered daily for 9 days assessed as suppression of stool bacterial count. Type of assay: functional, organism-based.
Assay [7] relates to Klebsiella pneumoniae. Briefly: Antibacterial activity against extended-spectrum-beta-lactamase-producing Klebsiella pneumoniae P10045 infected in sc dosed CF1 mouse with high-density bacterial colonization administered daily for 9 days assessed as suppression of stool bacterial count. The assay is classed as functional, organism-based.

In general, MIC refers to the least concentration at which growth counts as inhibited. A higher MIC goes with a less susceptible organism. As to `CO/N=C(\C(=O)N[C@@H]1C(=O)N2C(C(=O)O)=C(CSc3nc(=O)c(O)nn3C)CS[C@H]12)c1csc(N)n1` [CEFTRIAXONE], the MIC with Klebsiella pneumoniae [1] was 78 µg/mL (≈ 141 µM); in the assay on Klebsiella pneumoniae [3] it was 4 µg/mL (≈ 7.21 µM); against Klebsiella pneumoniae [5], 4 µg/mL (≈ 7.21 µM). Besides, the outcome with Klebsiella pneumoniae [2] and in the assay with Klebsiella pneumoniae [4] was Active.

Take `C[C@@H](O)[C@H]1C(=O)N2C(C(=O)O)=C(S[C@@H]3CN[C@H](C(=O)Nc4cccc(C(=O)O)c4)C3)[C@H](C)[C@H]12` [ERTAPENEM]: the outcome in the assay with Klebsiella pneumoniae [6] and with Klebsiella pneumoniae [7] was Active. For the same molecule, the MIC against Klebsiella pneumoniae [1] is 0.25 µg/mL (≈ 0.526 µM); in the assay on Klebsiella pneumoniae [3], under 0.25 µg/mL; in the assay with Klebsiella pneumoniae [5], under 0.25 µg/mL.
